Source: PubChem BioAssay (NCI)
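All cell lines were grown in 96-well plates and treated with compound for 48 hours. GI50 is the concentration that inhibits growth by half. TGI: total growth inhibition.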

Tests used:
Test in all cases: NCI tumour cell line growth inhibition, 48 h
786-0 renal = test system: 786-0 renal
A498 renal = test system: A498 renal
A549 NSCLC = test system: A549 NSCLC
ACHN renal = test system: ACHN renal
BT-549 breast = test system: BT-549 breast
CAKI-1 renal = test system: CAKI-1 renal
CCRF-CEM leukemia = test system: CCRF-CEM leukemia
COLO 205 colon = test system: COLO 205 colon
DU-145 prostate = test system: DU-145 prostate
EKVX NSCLC = test system: EKVX NSCLC
HCC-2998 colon = test system: HCC-2998 colon
HCT-116 colon = test system: HCT-116 colon
HCT-15 colon = test system: HCT-15 colon
HOP-62 NSCLC = test system: HOP-62 NSCLC
HOP-92 NSCLC = test system: HOP-92 NSCLC
HS 578T breast = test system: HS 578T breast
HT29 colon = test system: HT29 colon
IGROV1 ovarian = test system: IGROV1 ovarian
K-562 leukemia = test system: K-562 leukemia
KM12 colon = test system: KM12 colon
LOX IMVI melanoma = test system: LOX IMVI melanoma
M14 melanoma = test system: M14 melanoma
MALME-3M melanoma = test system: MALME-3M melanoma
MCF7 breast = test system: MCF7 breast
MDA-MB-231 breast = test system: MDA-MB-231 breast
MDA-MB-435 = test system: MDA-MB-435
MDA-N = test system: MDA-N
MOLT-4 leukemia = test system: MOLT-4 leukemia
NCI-H226 lung = test system: NCI-H226 lung
NCI-H23 lung = test system: NCI-H23 lung
NCI-H460 lung = test system: NCI-H460 lung
NCI-H522 lung = test system: NCI-H522 lung
NCI/ADR-RES ovarian = test system: NCI/ADR-RES ovarian
OVCAR-3 ovarian = test system: OVCAR-3 ovarian
OVCAR-4 ovarian = test system: OVCAR-4 ovarian
OVCAR-5 ovarian = test system: OVCAR-5 ovarian
OVCAR-8 ovarian = test system: OVCAR-8 ovarian
PC-3 prostate = test system: PC-3 prostate
RPMI-8226 leukemia = test system: RPMI-8226 leukemia
SF-268 CNS = test system: SF-268 CNS
SF-295 CNS = test system: SF-295 CNS
SF-539 CNS = test system: SF-539 CNS
SK-MEL-2 melanoma = test system: SK-MEL-2 melanoma
SK-MEL-5 melanoma = test system: SK-MEL-5 melanoma
SK-OV-3 ovarian = test system: SK-OV-3 ovarian
SN12C renal = test system: SN12C renal
SNB-19 CNS = test system: SNB-19 CNS
SNB-75 CNS = test system: SNB-75 CNS
SR leukemia = test system: SR leukemia
SW-620 colon = test system: SW-620 colon
T-47D breast = test system: T-47D breast
TK-10 renal = test system: TK-10 renal
U251 CNS = test system: U251 CNS
UACC-257 melanoma = test system: UACC-257 melanoma
UACC-62 melanoma = test system: UACC-62 melanoma
UO-31 renal = test system: UO-31 renal
HL-60(TB) leukemia = test system: HL-60(TB) leukemia
RXF 393 renal = test system: RXF 393 renal
SK-MEL-28 melanoma = test system: SK-MEL-28 melanoma

For `Oc1[nH]c2ccccc2c1N=NC1=NCCCCN1`, the TGI (786-0 renal) was over 100 µM, the TGI (A498 renal) was over 100 µM and the TGI (A549 NSCLC) was over 100 µM. It also gave a TGI (ACHN renal) of over 100 µM, a TGI (BT-549 breast) of over 100 µM and a TGI (CAKI-1 renal) of over 100 µM. For the same compound, the TGI (CCRF-CEM leukemia) was over 100 µM, the TGI (COLO 205 colon) was over 100 µM and the TGI (DU-145 prostate) was over 100 µM. It also gave a TGI (EKVX NSCLC) of over 100 µM, a TGI (HCC-2998 colon) of over 100 µM and a TGI (HCT-116 colon) of over 100 µM. It also gave a TGI (HCT-15 colon) of over 100 µM, a TGI (HOP-62 NSCLC) of over 100 µM and a TGI (HOP-92 NSCLC) of over 100 µM. It also gave a TGI (HS 578T breast) of over 100 µM, a TGI (HT29 colon) of over 100 µM and a TGI (IGROV1 ovarian) of over 100 µM. It also gave a TGI (K-562 leukemia) of over 100 µM, a TGI (KM12 colon) of over 100 µM and a TGI (LOX IMVI melanoma) of over 100 µM. For the same compound, the TGI (M14 melanoma) was over 100 µM, the TGI (MALME-3M melanoma) was over 100 µM and the TGI (MCF7 breast) was over 100 µM. It also gave a TGI (MDA-MB-231 breast) of over 100 µM, a TGI (MDA-MB-435) of over 100 µM and a TGI (MDA-N) of over 100 µM. For the same compound, the TGI (MOLT-4 leukemia) was over 100 µM, the TGI (NCI-H226 lung) was over 100 µM and the TGI (NCI-H23 lung) was over 100 µM. The TGI (NCI-H460 lung) was over 100 µM, the TGI (NCI-H522 lung) was over 100 µM and the TGI (NCI/ADR-RES ovarian) was over 100 µM. It also gave a TGI (OVCAR-3 ovarian) of over 100 µM, a TGI (OVCAR-4 ovarian) of over 100 µM and a TGI (OVCAR-5 ovarian) of over 100 µM. It also gave a TGI (OVCAR-8 ovarian) of over 100 µM, a TGI (PC-3 prostate) of over 100 µM and a TGI (RPMI-8226 leukemia) of over 100 µM. The TGI (SF-268 CNS) was over 100 µM, the TGI (SF-295 CNS) was over 100 µM and the TGI (SF-539 CNS) was over 100 µM. For the same compound, the TGI (SK-MEL-2 melanoma) was over 100 µM, the TGI (SK-MEL-5 melanoma) was over 100 µM and the TGI (SK-OV-3 ovarian) was over 100 µM. The TGI (SN12C renal) was over 100 µM, the TGI (SNB-19 CNS) was over 100 µM and the TGI (SNB-75 CNS) was over 100 µM. The TGI (SR leukemia) was over 100 µM, the TGI (SW-620 colon) was over 100 µM and the TGI (T-47D breast) was over 100 µM. For the same compound, the TGI (TK-10 renal) was over 100 µM, the TGI (U251 CNS) was over 100 µM and the TGI (UACC-257 melanoma) was over 100 µM. It also gave a TGI (UACC-62 melanoma) of over 100 µM and a TGI (UO-31 renal) of over 100 µM.

For `O=C1c2cccnc2-c2nc(/C=C/c3ccccc3)cc3c2c1nc1ccccc13`, the GI50 (786-0 renal) was 2.26 µM, the TGI (786-0 renal) was 6.48 µM and the GI50 (A498 renal) was 3.88 µM. For the same compound, the TGI (A498 renal) was 10.5 µM, the GI50 (A549 NSCLC) was 2.2 µM and the TGI (A549 NSCLC) was 4.34 µM. The GI50 (ACHN renal) was 1.94 µM, the TGI (ACHN renal) was 5.54 µM and the GI50 (BT-549 breast) was 6.38 µM. It also gave a TGI (BT-549 breast) of 17.3 µM, a GI50 (CAKI-1 renal) of 3.05 µM and a TGI (CAKI-1 renal) of 10.3 µM. The GI50 (CCRF-CEM leukemia) was 3.06 µM, the TGI (CCRF-CEM leukemia) was over 100 µM and the GI50 (COLO 205 colon) was 3.74 µM. It also gave a TGI (COLO 205 colon) of 16.7 µM, a GI50 (DU-145 prostate) of 1.76 µM and a TGI (DU-145 prostate) of 3.58 µM. The GI50 (EKVX NSCLC) was 2.82 µM, the TGI (EKVX NSCLC) was 14 µM and the GI50 (HCC-2998 colon) was 1.81 µM. The TGI (HCC-2998 colon) was 3.2 µM, the GI50 (HCT-116 colon) was 1.95 µM and the TGI (HCT-116 colon) was 6.14 µM. It also gave a GI50 (HCT-15 colon) of 0.844 µM, a TGI (HCT-15 colon) of 2.1 µM and a GI50 (HL-60(TB) leukemia) of 1.79 µM. It also gave a TGI (HL-60(TB) leukemia) of 7.97 µM, a GI50 (HOP-62 NSCLC) of 2.78 µM and a TGI (HOP-62 NSCLC) of 11.8 µM. For the same compound, the GI50 (HOP-92 NSCLC) was 17.4 µM, the TGI (HOP-92 NSCLC) was over 100 µM and the GI50 (HS 578T breast) was 3.74 µM. It also gave a TGI (HS 578T breast) of 18 µM, a GI50 (HT29 colon) of 1.87 µM and a TGI (HT29 colon) of 3.97 µM. The GI50 (IGROV1 ovarian) was 1.59 µM, the TGI (IGROV1 ovarian) was 4.44 µM and the GI50 (K-562 leukemia) was 1.43 µM. For the same compound, the TGI (K-562 leukemia) was 9.1 µM, the GI50 (KM12 colon) was 1.78 µM and the TGI (KM12 colon) was 5.04 µM. The GI50 (LOX IMVI melanoma) was 2.76 µM, the TGI (LOX IMVI melanoma) was 6.92 µM and the GI50 (M14 melanoma) was 1.73 µM. For the same compound, the TGI (M14 melanoma) was 3.58 µM, the GI50 (MALME-3M melanoma) was 5.01 µM and the TGI (MALME-3M melanoma) was 20.5 µM. For the same compound, the GI50 (MCF7 breast) was 0.899 µM, the TGI (MCF7 breast) was 5.01 µM and the GI50 (MDA-MB-231 breast) was 6.95 µM. For the same compound, the TGI (MDA-MB-231 breast) was over 80.8 µM, the GI50 (MDA-MB-435) was 1.86 µM and the TGI (MDA-MB-435) was 3.37 µM. For the same compound, the GI50 (MDA-N) was 2.04 µM, the TGI (MDA-N) was 4.15 µM and the GI50 (MOLT-4 leukemia) was 1.57 µM. The TGI (MOLT-4 leukemia) was 10.8 µM, the GI50 (NCI-H226 lung) was 10.1 µM and the TGI (NCI-H226 lung) was 28 µM. It also gave a GI50 (NCI-H23 lung) of 1.6 µM, a TGI (NCI-H23 lung) of 3.58 µM and a GI50 (NCI-H460 lung) of 0.354 µM. For the same compound, the TGI (NCI-H460 lung) was 1.27 µM, the GI50 (NCI-H522 lung) was 1.76 µM and the TGI (NCI-H522 lung) was 3.47 µM. It also gave a GI50 (NCI/ADR-RES ovarian) of 6.35 µM, a TGI (NCI/ADR-RES ovarian) of 42.1 µM and a GI50 (OVCAR-3 ovarian) of 1.9 µM. It also gave a TGI (OVCAR-3 ovarian) of 4.69 µM, a GI50 (OVCAR-4 ovarian) of 3.77 µM and a TGI (OVCAR-4 ovarian) of 10.5 µM. It also gave a GI50 (OVCAR-5 ovarian) of 11.8 µM, a TGI (OVCAR-5 ovarian) of 25.4 µM and a GI50 (OVCAR-8 ovarian) of 3.8 µM. The TGI (OVCAR-8 ovarian) was over 30 µM, the GI50 (PC-3 prostate) was 1.97 µM and the TGI (PC-3 prostate) was 13.6 µM. The GI50 (RPMI-8226 leukemia) was 1.2 µM, the TGI (RPMI-8226 leukemia) was 5.12 µM and the GI50 (RXF 393 renal) was 14.8 µM. For the same compound, the TGI (RXF 393 renal) was 37.1 µM, the GI50 (SF-268 CNS) was 2.24 µM and the TGI (SF-268 CNS) was over 21.2 µM. It also gave a GI50 (SF-295 CNS) of 2.31 µM, a TGI (SF-295 CNS) of 5.27 µM and a GI50 (SF-539 CNS) of 3.02 µM. The TGI (SF-539 CNS) was 7.77 µM, the GI50 (SK-MEL-2 melanoma) was 2.14 µM and the TGI (SK-MEL-2 melanoma) was 4.99 µM. It also gave a GI50 (SK-MEL-28 melanoma) of 2.3 µM, a TGI (SK-MEL-28 melanoma) of 4.18 µM and a GI50 (SK-OV-3 ovarian) of 7.1 µM. It also gave a TGI (SK-OV-3 ovarian) of 17 µM, a GI50 (SN12C renal) of 2.77 µM and a TGI (SN12C renal) of 9.01 µM. The GI50 (SNB-19 CNS) was 2.51 µM, the TGI (SNB-19 CNS) was 6.13 µM and the GI50 (SNB-75 CNS) was 2 µM. The TGI (SNB-75 CNS) was 8.06 µM, the GI50 (T-47D breast) was 6.16 µM and the TGI (T-47D breast) was over 78.7 µM. For the same compound, the GI50 (TK-10 renal) was 19.1 µM, the TGI (TK-10 renal) was 43.2 µM and the GI50 (U251 CNS) was 2.9 µM. It also gave a TGI (U251 CNS) of 11.1 µM, a GI50 (UACC-257 melanoma) of 2.35 µM and a TGI (UACC-257 melanoma) of 6.3 µM. It also gave a GI50 (UACC-62 melanoma) of 1.72 µM, a TGI (UACC-62 melanoma) of 3.28 µM and a GI50 (UO-31 renal) of 2.01 µM. The TGI (UO-31 renal) was 6.5 µM.
